Calls of active or inactive are those of the source. The rule behind the calls is not given here.
What was measured:
[1] = target: T1, Histone deacetylase (Homo sapiens) (UniProt Q13547+O15379+Q9UBN7+Q92769+Q9UQL6+Q8WUI4+Q9BY41+Q96DB2+P56524+Q9UKV0+Q969S8); assay: Inhibition of HDAC in human HCT-116 cells assessed as increase in acetylated alpha-tubulin expression expression at 0.17 to 1.5 uM incubated for 48 hrs by Western blot analysis; format: cell-based; conditions: dose 0.17-1.5 µM
Calf thymus DNA = assay: Binding affinity to calf thymus DNA at 50 uM incubated for 30 mins and measured by fluorescence spectroscopy; format: nucleic-acid assay; conditions: Bos taurus
Histone deacetylase 1 = Histone deacetylase 1 (Homo sapiens, UniProt Q13547); assay: Inhibition of HDAC1 in human HeLa cell nuclear extract using Boc-Lys(Ac)-AMC or Boc-Lys(triflouroacetyl)-AMC as substrate incubated for 30 mins and measured by fluorescence assay; format: cell-free
MC-38 [2] = assay: Antitumor activity against mouse MC38 cells xenografted in C57BL/6 mouse assessed as tumor growth inhibition at 100 mg/kg, ip administered every 2 days for 16 consecutive days; format: functional; conditions: MC-38, 384 h, time 16 day, read-out: TGI
MC-38 [3] = assay: Antiproliferative activity against mouse MC38 cells after 48 hrs by CCK-8 assay; format: functional, cell-based; conditions: MC-38, 48 h
HCT-116 [4] = assay: Downregulation of SSRP-1 expression in human HCT-116 cells at 0.17 to 1.5 uM measured after 24 hrs by Western blot analysis; format: functional, cell-based; conditions: dose 0.17-1.5 µM
HCT-116 [5] = assay: Induction of apoptosis in human HCT-116 cells assessed as late apoptotic cells at 1.5 uM incubated for 48 hrs by PI and annexin V-FITC staining based flow cytometry (reference value: 3.4%); format: functional
HepG2 = assay: Antiproliferative activity against human HepG2 cells after 48 hrs by CCK-8 assay; format: functional, cell-based; conditions: HepG2, 48 h
MOLT-4 = assay: Antiproliferative activity against human MOLT-4 cells after 48 hrs by CCK-8 assay; format: functional, cell-based; conditions: MOLT-4, 48 h
HCT-116 [6] = assay: Induction of apoptosis in human HCT-116 cells assessed as early apoptotic cells at 1.5 uM incubated for 48 hrs by PI and annexin V-FITC staining based flow cytometry (reference value: 3.4%); format: functional
MC-38 [7] = assay: Antitumor activity against mouse MC38 cells xenografted in C57BL/6 mouse assessed as induction of apoptosis in tumor at 50 to 100 mg/kg, ip administered every 2 days for 16 consecutive days measured by TUNEL staining based assay; format: functional, organism-based; conditions: dose 50-100 mg/kg, time 16.0 day
MC38 [8] = assay: Inhibition of HDAC in mouse MC-38 cells assessed as increase in acetylated alpha-tubulin expression expression at 0.17 to 1.5 uM incubated for 48 hrs by Western blot analysis; format: cell-based; conditions: dose 0.17-1.5 µM
MC-38 [9] = assay: Antitumor activity against mouse MC38 cells xenografted in C57BL/6 mouse assessed as decrease in Ac-HH3 expression in tumor at 50 to 100 mg/kg, ip administered every 2 days for 16 consecutive days measured by immunohistochemistry analysis; format: functional, organism-based; conditions: dose 50-100 mg/kg, time 16.0 day
MC38 [10] = assay: Inhibition of HDAC in mouse MC-38 cells assessed as increase in acetylated HH3 expression expression at 0.17 to 1.5 uM incubated for 48 hrs by Western blot analysis; format: cell-based; conditions: dose 0.17-1.5 µM
[11] = target: Histone deacetylase (HDAC1 and HDAC2) (Homo sapiens, UniProt Q13547+Q92769); assay: Inhibition of HDAC1/HDAC2 in human HeLa cell nuclear extract using Boc-Lys(Ac)-AMC as substrate and measured by fluorometric method; format: cell-based
[12] = target: T2, Protein deacetylase HDAC6 (Homo sapiens, UniProt Q9UBN7); assay: Inhibition of HDAC6 in human HeLa cell nuclear extract using Boc-Lys(Ac)-AMC or Boc-Lys(triflouroacetyl)-AMC as substrate incubated for 30 mins and measured by fluorescence assay; format: cell-free
T2 sequence (Q9UBN7 whole entry): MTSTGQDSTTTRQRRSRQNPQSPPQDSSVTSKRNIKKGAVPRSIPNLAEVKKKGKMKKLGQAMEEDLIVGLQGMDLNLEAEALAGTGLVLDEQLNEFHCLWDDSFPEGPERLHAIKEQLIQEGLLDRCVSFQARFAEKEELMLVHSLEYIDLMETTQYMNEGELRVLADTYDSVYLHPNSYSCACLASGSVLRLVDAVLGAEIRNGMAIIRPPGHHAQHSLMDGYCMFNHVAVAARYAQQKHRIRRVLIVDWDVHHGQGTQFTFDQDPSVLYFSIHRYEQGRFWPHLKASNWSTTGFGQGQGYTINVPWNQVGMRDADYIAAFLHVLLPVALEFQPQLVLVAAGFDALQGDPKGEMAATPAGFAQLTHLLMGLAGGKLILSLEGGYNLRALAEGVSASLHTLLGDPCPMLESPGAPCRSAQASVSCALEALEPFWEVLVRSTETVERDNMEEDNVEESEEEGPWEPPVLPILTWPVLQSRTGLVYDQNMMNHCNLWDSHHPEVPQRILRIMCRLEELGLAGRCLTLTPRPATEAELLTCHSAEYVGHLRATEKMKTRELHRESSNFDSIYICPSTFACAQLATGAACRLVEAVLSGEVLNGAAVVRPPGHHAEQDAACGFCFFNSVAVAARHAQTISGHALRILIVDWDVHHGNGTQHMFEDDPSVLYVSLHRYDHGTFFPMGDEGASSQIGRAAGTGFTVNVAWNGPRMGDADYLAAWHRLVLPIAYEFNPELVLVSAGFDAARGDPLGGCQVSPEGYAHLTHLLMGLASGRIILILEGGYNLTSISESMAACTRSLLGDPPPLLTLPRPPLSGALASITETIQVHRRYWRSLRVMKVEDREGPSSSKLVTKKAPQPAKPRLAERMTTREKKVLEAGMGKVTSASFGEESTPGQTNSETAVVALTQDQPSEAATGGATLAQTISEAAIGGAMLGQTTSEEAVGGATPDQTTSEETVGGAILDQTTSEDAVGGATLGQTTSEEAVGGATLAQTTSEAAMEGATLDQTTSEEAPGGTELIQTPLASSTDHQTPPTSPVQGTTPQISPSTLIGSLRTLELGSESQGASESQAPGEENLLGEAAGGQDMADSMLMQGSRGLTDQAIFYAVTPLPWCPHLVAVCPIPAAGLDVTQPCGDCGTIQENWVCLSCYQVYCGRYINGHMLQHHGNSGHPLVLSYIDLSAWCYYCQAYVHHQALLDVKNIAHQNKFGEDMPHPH

MC-38 [13] = assay: Antitumor activity against mouse MC38 cells xenografted in C57BL/6 mouse assessed as decrease in tumor volume at 50 to 100 mg/kg, ip administered every 2 days for 16 consecutive days; format: functional, organism-based; conditions: dose 50-100 mg/kg, time 16.0 day
HCT-116 [14] = assay: Downregulation of SPT16 expression in human HCT-116 cells at 0.17 to 1.5 uM measured after 24 hrs by Western blot analysis; format: functional, cell-based; conditions: dose 0.17-1.5 µM
MC-38 [15] = assay: Antitumor activity against mouse MC38 cells xenografted in C57BL/6 mouse assessed as decrease in tumor weight at 50 to 100 mg/kg, ip administered every 2 days for 16 consecutive days; format: functional, organism-based; conditions: dose 50-100 mg/kg, time 16.0 day
[16] = target: T1, Histone deacetylase (Homo sapiens); assay: Inhibition of HDAC in human HCT-116 cells assessed as increase in acetylated HH3 expression expression at 0.17 to 1.5 uM incubated for 48 hrs by Western blot analysis; format: cell-based; conditions: dose 0.17-1.5 µM

Chain of Histone deacetylase 1 (Q13547 whole entry): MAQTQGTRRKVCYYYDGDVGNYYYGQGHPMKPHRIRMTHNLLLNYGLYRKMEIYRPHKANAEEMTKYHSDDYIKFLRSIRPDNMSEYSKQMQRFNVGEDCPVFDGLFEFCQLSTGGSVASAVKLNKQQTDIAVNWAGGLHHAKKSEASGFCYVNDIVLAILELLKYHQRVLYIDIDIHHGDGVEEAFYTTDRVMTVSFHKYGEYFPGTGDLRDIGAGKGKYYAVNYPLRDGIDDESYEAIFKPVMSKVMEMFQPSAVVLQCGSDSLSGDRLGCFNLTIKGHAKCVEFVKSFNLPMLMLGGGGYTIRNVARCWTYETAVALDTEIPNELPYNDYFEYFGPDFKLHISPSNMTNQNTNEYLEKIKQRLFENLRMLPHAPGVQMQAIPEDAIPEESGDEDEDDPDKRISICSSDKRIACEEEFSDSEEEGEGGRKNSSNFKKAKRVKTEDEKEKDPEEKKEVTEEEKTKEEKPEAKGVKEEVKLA

inhibition [1]: Active
Activity (Calf thymus DNA): Active
IC50 (Histone deacetylase 1): 15 nM
IC50 (HepG2): 1400 nM
IC50 (MOLT-4): 150 nM
IC50 [11]: 38 nM
IC50 [12]: 20 nM
inhibition [16]: Active
Compound: O=C(CCCCCOc1cccc(-c2nnc(-c3ccccc3)s2)c1)NO
inhibition in vivo at 100 mg/kg (MC-38 [2]): 85.2%
IC50 (MC-38 [3]): 430 nM
Activity (HCT-116 [4]): Active
Activity (HCT-116 [5]): 38.5%
Activity (HCT-116 [6]): 38.5%
Activity (MC-38 [7]): Active
inhibition (MC38 [8]): Active
Activity (MC-38 [9]): Active
inhibition (MC38 [10]): Active
Activity (MC-38 [13]): Active
Activity (HCT-116 [14]): Active
Activity (MC-38 [15]): Active

From ChEMBL document CHEMBL5108012, “Discovery of 2,5-diphenyl-1,3,4-thiadiazole derivatives as HDAC inhibitors with DNA binding affinity” (Eur J Med Chem, 2022)
